Measurements reported in patent US20250312352A1, “GLP-1R MODULATING COMPOUNDS” (Gilead Sciences, Inc., priority 2021, published 2025).

Molecular target: T1, GLP-1R (Homo sapiens, UniProt P43220)
T1 construct: host or cells: CHO cells
Assay: GLP-1R activation cAMP assay (Assay 1 or Assay 2)
Assay type: cell-based
Settings: cAMP increase in CHO cells stably expressing GLP-1R; compounds run on one of the two cAMP assays
Description: GLP-1R ACTIVATION—cAMP Assay 1
GLP-1R activation by compounds of the present disclosure was quantified by measuring cAMP increase in CHO cells stably expressing GLP-1R (MultiSpan product #C1267-1a). The cells were harvested and plated in growth medium (DMEM/F-12 (Corning product #10-090-CV) supplemented with 10% FBS (HyClone product #SH30071-03), penicillin/streptomycin (Corning product #30-002CI) and 10 μg/ml puromycin (Gibco product #A11138-03)) at 1,000 cells/well in a 384-well plate (Greiner product #781080). The cells were then incubated overnight at 37° C., 5% CO2. The next day, the medium was removed and the cells were washed with DPBS (Corning product #21-031-CM) before adding the assay medium (HBSS, Corning product #21-023-CV) with 20 mM Hepes (Gibco product #15630-080) and 0.1% BSA (Rockland Immunochemicals product #BSA-1000)). Following the medium change, the cells were incubated for 1 hour at 37° C., 5% CO2. The tested GLP-1 compound was added to the cells in a 10-point dose response followed by a 30-minute incubation at 37° C., 5% CO2. cAMP concentration increase was then detected using Cisbio's cAMP Gs Dynamic Kit (product #62AM4PEC) according to the manufacturer's protocol. The response was plotted against the log of the agonist concentration and fitted to a sigmoidal equation to determine the EC50.
GLP-1R ACTIVATION—cAMP Assay 2
GLP-1R activation by small molecule agonists was quantified by measuring cAMP increase in CHO cells stably expressing GLP-1R (MultiSpan product #C1267-1a). 50 nL of agonists were pre-spotted in a 10-point dose response onto 384-well plate (Corning product #CL3826) using the Labcyte Echo System.

T1 sequence (P43220 24-463): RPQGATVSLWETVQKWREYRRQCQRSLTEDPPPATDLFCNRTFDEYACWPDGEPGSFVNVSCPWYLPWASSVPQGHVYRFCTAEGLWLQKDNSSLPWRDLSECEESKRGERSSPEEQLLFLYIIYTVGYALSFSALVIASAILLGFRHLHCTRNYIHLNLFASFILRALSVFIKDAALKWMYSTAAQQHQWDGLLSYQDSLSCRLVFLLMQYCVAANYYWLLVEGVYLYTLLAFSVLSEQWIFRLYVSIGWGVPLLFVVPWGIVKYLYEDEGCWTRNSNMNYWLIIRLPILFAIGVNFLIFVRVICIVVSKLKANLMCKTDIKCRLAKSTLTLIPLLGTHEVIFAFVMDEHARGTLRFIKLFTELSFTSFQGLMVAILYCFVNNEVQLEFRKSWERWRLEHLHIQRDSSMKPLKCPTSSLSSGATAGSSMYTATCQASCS

| EC50 | SMILES |
| --- | --- |
| 0.23 nM | Cn1ccc(-c2cnc(COc3cccc(-c4cc(F)c(Cc5nc6ccc(C(=O)O)cc6n5C[C@@H]5CCO5)cc4F)n3)s2)n1 [Example 103, (S)-2-(2,5-difluoro-4-(6-((5-(1-methyl-1H-pyrazol-3-yl)thiazol-2-yl)methoxy)pyridin-2-yl)benzyl)-1-(oxetan-2-ylmethyl)-1H-benzo[d]imidazole-6-carboxylic acid] |
| 22.6 nM | COCCn1c(Cc2cc(F)c(-c3cccc(OCc4ccc(-n5cnc(C6CC6)n5)nc4)n3)cc2F)nc2ccc(C(=O)O)cc21 [Example 250, 2-(4-(6-((6-(3-cyclopropyl-1H-1,2,4-triazol-1-yl)pyridin-3-yl)methoxy)pyridin-2-yl)-2,5-difluorobenzyl)-1-(2-methoxyethyl)-1H-benzo[d]imidazole-6-carboxylic acid] |
| 5.61 nM | NC(=O)c1ccc(COc2cccc(-c3cc(F)c(Cc4nc5ccc(C(=O)O)cc5n4C[C@@H]4CCO4)cc3F)n2)nc1 [Example 248, 2-[[4-[6-[(5-carbamoyl-2-pyridyl)methoxy]-2-pyridyl]-2,5-difluoro-phenyl]methyl]-3-[[(2S)-oxetan-2-yl]methyl]benzimidazole-5-carboxylic acid] |
| 0.12 nM | N#CC1(NC(=O)c2cc(Cl)c(COc3cccc(-c4cc(F)c(Cc5nc6ccc(C(=O)O)cc6n5C[C@@H]5CCO5)cc4F)n3)cn2)COC1 [Example 187, (S)-2-(4-(6-((4-chloro-6-((3-cyanooxetan-3-yl)carbamoyl)pyridin-3-yl)methoxy)pyridin-2-yl)-2,5-difluorobenzyl)-1-(oxetan-2-ylmethyl)-1H-benzo[d]imidazole-6-carboxylic acid] |
| 1.2 nM | COCCn1c(Cc2cc(F)c(-c3cccc(OCc4ccc(C#Cc5cncn5C)cc4F)n3)cc2F)nc2ccc(C(=O)O)cc21 [Example 233, 2-(2,5-difluoro-4-(6-((2-fluoro-4-((1-methyl-1H-imidazol-5-yl)ethynyl)benzyl)oxy)pyridin-2-yl)benzyl)-1-(2-methoxyethyl)-1H-benzo[d]imidazole-6-carboxylic acid] |
| 1070 nM | COCCn1c(Cc2cc(F)c(-c3cccc(OCc4ccc(C#CC(C)(C)S(C)(=O)=O)nc4)n3)cc2F)nc2ccc(C(=O)O)cc21 [Example 221, 2-[[2,5-difluoro-4-[6-[[6-(3-methyl-3-methylsulfonyl-but-1-ynyl)-3-pyridyl]methoxy]-2-pyridyl]phenyl]methyl]-3-(2-methoxyethyl)benzimidazole-5-carboxylic acid] |
| 0.52 nM | O=C(O)c1ccc2nc(Cc3cc(F)c(-c4cccc(OCc5nnc(OCC(F)F)s5)n4)cc3F)n(C[C@@H]3CCO3)c2c1 [Example 352, (S)-2-(4-(6-((5-(2,2-difluoroethoxy)-1,3,4-thiadiazol-2-yl)methoxy)pyridin-2-yl)-2,5-difluorobenzyl)-1-(oxetan-2-ylmethyl)-1H-benzo[d]imidazole-6-carboxylic acid] |
| 0.51 nM | NC(=O)c1ccc(COc2nccc(-c3cc(F)c(Cc4nc5ccc(C(=O)O)cc5n4C[C@@H]4CCO4)cc3F)n2)c(OC(F)F)n1 [Example 223, (S)-2-(4-(2-((6-carbamoyl-2-(difluoromethoxy)pyridin-3-yl)methoxy)pyrimidin-4-yl)-2,5-difluorobenzyl)-1-(oxetan-2-ylmethyl)-1H-benzo[d]imidazole-6-carboxylic acid] |
| 0.1 nM | O=C(O)c1ccc2nc(Cc3cc(F)c(-c4cccc(OCc5ccc(-c6cnn(C7COC7)c6)cc5F)n4)cc3F)n(C[C@@H]3CCO3)c2c1 [Example 164, (S)-2-(2,5-difluoro-4-(6-((2-fluoro-4-(1-(oxetan-3-yl)-1H-pyrazol-4-yl)benzyl)oxy)pyridin-2-yl)benzyl)-1-(oxetan-2-ylmethyl)-1H-benzo[d]imidazole-6-carboxylic acid] |
| 0.384 nM | CC1(C)COC[C@H]1n1c(Cc2cc(F)c(-c3ccnc(OCc4ccc(Cl)s4)n3)cc2F)nc2ccc(C(=O)O)cc21 [Example 418, (S)-2-(4-(2-((5-chlorothiophen-2-yl)methoxy)pyrimidin-4-yl)-2,5-difluorobenzyl)-1-(4,4-dimethyltetrahydrofuran-3-yl)-1H-benzo[d]imidazole-6-carboxylic acid] |
| 0.08 nM | O=C(O)c1ccc2nc(Cc3cc(F)c(-c4cccc(OCc5ncc(-c6cnsc6)s5)n4)cc3F)n(C[C@@H]3CCO3)c2c1 [Example 95, (S)-2-(2,5-difluoro-4-(6-((5-(isothiazol-4-yl)thiazol-2-yl)methoxy)pyridin-2-yl)benzyl)-1-(oxetan-2-ylmethyl)-1H-benzo[d]imidazole-6-carboxylic acid] |
| 0.62 nM | N#Cc1ncc(COc2cccc(-c3cc(F)c(Cc4nc5ccc(C(=O)O)cc5n4C[C@@H]4CCO4)cc3F)n2)s1 [Example 166, (S)-2-(4-(6-((2-cyanothiazol-5-yl)methoxy)pyridin-2-yl)-2,5-difluorobenzyl)-1-(oxetan-2-ylmethyl)-1H-benzo[d]imidazole-6-carboxylic acid] |
| 0.355 nM | Cn1cc(-c2ncc(COc3cccc(-c4cc(F)c(Cc5nc6ccc(C(=O)O)cc6n5C[C@@H]5CCO5)cc4F)n3)s2)cn1 [Example 355, (S)-2-(2,5-difluoro-4-(6-((2-(1-methyl-1H-pyrazol-4-yl)thiazol-5-yl)methoxy)pyridin-2-yl)benzyl)-1-(oxetan-2-ylmethyl)-1H-benzo[d]imidazole-6-carboxylic acid] |
| 0.712 nM | COc1nnc(COc2nc(-c3cc(F)c(Cc4nc5ccc(C(=O)O)cc5n4CC4(CF)CC4)c(F)c3F)ccc2F)s1 [Example 368, 1-((1-(fluoromethyl)cyclopropyl)methyl)-2-(2,3,6-trifluoro-4-(5-fluoro-6-((5-methoxy-1,3,4-thiadiazol-2-yl)methoxy)pyridin-2-yl)benzyl)-1H-benzo[d]imidazole-6-carboxylic acid] |
| 8.61 nM | N#CCn1ccc(COc2cccc(-c3cc(F)c(Cc4nc5ccc(C(=O)O)cc5n4C[C@@H]4CCO4)cc3F)n2)n1 [Example 238, 2-[[4-[6-[[1-(cyanomethyl)pyrazol-3-yl]methoxy]-2-pyridyl]-2,5-difluoro-phenyl]methyl]-3-[[(2S)-oxetan-2-yl]methyl]benzimidazole-5-carboxylic acid] |
| 0.105 nM | CC1(C)COCC1n1c(Cc2cc(F)c(-c3cccc(OCc4ncc(C(F)(F)F)s4)n3)cc2F)nc2c(F)cc(C(=O)O)cc21 (stereo not shown) [Example 437, 2-(2,5-difluoro-4-(6-((5-(trifluoromethyl)thiazol-2-yl)methoxy)pyridin-2-yl)benzyl)-1-(4,4-dimethyltetrahydrofuran-3-yl)-4-fluoro-1H-benzo[d]imidazole-6-carboxylic acid] |
| 0.17 nM | O=C(O)c1ccc2nc(Cc3c(F)cc(-c4ccc(F)c(OCc5ncc(C(F)(F)F)s5)n4)c(F)c3F)n(C[C@@H]3CCO3)c2c1 [Example 446, (S)-1-(oxetan-2-ylmethyl)-2-(2,3,6-trifluoro-4-(5-fluoro-6-((5-(trifluoromethyl)thiazol-2-yl)methoxy)pyridin-2-yl)benzyl)-1H-benzo[d]imidazole-6-carboxylic acid] |
| 2.84 nM | O=C(O)c1ccc2nc(Cc3cc(F)c(-c4cccc(OCc5ccn(-c6ccccc6)n5)n4)cc3F)n(C[C@@H]3CCO3)c2c1 [Example 120, (S)-2-(2,5-difluoro-4-(6-((1-phenyl-1H-pyrazol-3-yl)methoxy)pyridin-2-yl)benzyl)-1-(oxetan-2-ylmethyl)-1H-benzo[d]imidazole-6-carboxylic acid] |
| 40.6 nM | COCCn1c(Cc2cc(F)c(-c3cccc(OCc4ccc(C(N)=O)nc4)n3)cc2F)nc2ccc(C(=O)O)cc21 [Example 174, 2-(4-(6-((6-carbamoylpyridin-3-yl)methoxy)pyridin-2-yl)-2,5-difluorobenzyl)-1-(2-methoxyethyl)-1H-benzo[d]imidazole-6-carboxylic acid] |
| 0.05 nM | CNC(=O)c1cc(Cl)c(COc2cccc(-c3cc(F)c(Cc4nc5ccc(C(=O)O)cc5n4CC4(CF)CC4)c(F)c3F)n2)cn1 [Example 450, 2-(4-(6-((4-chloro-6-(methylcarbamoyl)pyridin-3-yl)methoxy)pyridin-2-yl)-2,3,6-trifluorobenzyl)-1-((1-(fluoromethyl)cyclopropyl)methyl)-1H-benzo[d]imidazole-6-carboxylic acid] |
| 0.18 nM | O=C(O)c1ccc2nc(Cc3cc(F)c(-c4cccc(OCc5ncc(-c6cccnc6)s5)n4)cc3F)n(C[C@@H]3CCO3)c2c1 [Example 108, (S)-2-(2,5-difluoro-4-(6-((5-(pyridin-3-yl)thiazol-2-yl)methoxy)pyridin-2-yl)benzyl)-1-(oxetan-2-ylmethyl)-1H-benzo[d]imidazole-6-carboxylic acid] |
| 43.3 nM | Cn1nc(COc2cccc(-c3cc(F)c(Cc4nc5ccc(C(=O)O)cc5n4C[C@@H]4CCO4)cc3F)n2)cc1C(N)=O [Example 206, (S)-2-(4-(6-((5-carbamoyl-1-methyl-1H-pyrazol-3-yl)methoxy)pyridin-2-yl)-2,5-difluorobenzyl)-1-(oxetan-2-ylmethyl)-1H-benzo[d]imidazole-6-carboxylic acid] |
